This is an account of results in patent US9341616B2, “Sweet taste receptor chimeric proteins and use thereof” (AJINOMOTO CO., INC., priority 2014, dated 2016).

For this assay, the target named is h-mT1R2-EX5/mT1R3 (UniProt Q8TE23+Q925D8, A537S/A564V/A568V/A570T/A649T/A658V/A782V/E530V/E534N/E542M/E548N/F525Y/F665L/G696N/G701T/H528R/I490V/I510L/I518V/I595M/I643V/I645L/I692L/I695G/K504M/K626T/K714N/L521P/L571I/L578I/L610P/L631F/L636F/L639V/L688V/L702I/L734M/L800F/M492I/M616G/M682V/M690V/M748V/N540G/N541S/N721H/P638T/P824S/Q536L/Q546K/Q555R/Q676H/R498S/R667S/S501P/S547N/S550A/S628F/S663R/S670G/S681F/S703N/S727G/S784D/S804G/T529S/T549I/T609V/T629S/T642S/T705I/T706G/T716I/V508I/V512P/V557A/V585L/V613L/V617M/V673M/V687A/V691A/V694A/V718L/V741L/V774I/V791M/Y533F/Y615F/Y671F/Y769S/Y783H). To be noted: Table 4; genes h-mTEX5/mT3 (h-mT1R2-EX5, mT1R3); HEK293E cells.
Chain of h-mT1R2-EX5/mT1R3 (Q8TE23 with tags, fused parts or gaps with the stated changes limits assumed): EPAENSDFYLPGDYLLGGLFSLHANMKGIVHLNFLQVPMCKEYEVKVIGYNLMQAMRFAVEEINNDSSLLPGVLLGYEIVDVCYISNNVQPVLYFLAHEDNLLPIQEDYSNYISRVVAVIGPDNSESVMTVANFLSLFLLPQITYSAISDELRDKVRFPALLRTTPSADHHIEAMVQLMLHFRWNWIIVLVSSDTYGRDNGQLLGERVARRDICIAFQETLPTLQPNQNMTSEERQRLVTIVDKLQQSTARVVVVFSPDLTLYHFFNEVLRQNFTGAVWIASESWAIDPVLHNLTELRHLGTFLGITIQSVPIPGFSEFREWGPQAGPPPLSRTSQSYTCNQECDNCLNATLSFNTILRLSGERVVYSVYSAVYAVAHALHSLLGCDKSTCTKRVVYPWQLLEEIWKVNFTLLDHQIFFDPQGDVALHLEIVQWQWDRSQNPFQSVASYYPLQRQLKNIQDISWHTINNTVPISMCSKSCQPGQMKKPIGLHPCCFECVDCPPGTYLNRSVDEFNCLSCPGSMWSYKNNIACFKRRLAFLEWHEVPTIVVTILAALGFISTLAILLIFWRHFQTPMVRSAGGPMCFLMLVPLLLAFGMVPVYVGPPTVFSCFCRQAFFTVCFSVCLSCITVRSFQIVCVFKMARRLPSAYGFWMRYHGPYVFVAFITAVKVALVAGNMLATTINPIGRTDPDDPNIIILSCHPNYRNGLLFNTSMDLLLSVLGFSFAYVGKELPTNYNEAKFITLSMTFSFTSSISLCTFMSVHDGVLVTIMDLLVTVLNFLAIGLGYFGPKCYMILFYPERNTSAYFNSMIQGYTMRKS
Chain of h-mT1R2-EX5/mT1R3 (Q925D8 21-858, stated change not applied): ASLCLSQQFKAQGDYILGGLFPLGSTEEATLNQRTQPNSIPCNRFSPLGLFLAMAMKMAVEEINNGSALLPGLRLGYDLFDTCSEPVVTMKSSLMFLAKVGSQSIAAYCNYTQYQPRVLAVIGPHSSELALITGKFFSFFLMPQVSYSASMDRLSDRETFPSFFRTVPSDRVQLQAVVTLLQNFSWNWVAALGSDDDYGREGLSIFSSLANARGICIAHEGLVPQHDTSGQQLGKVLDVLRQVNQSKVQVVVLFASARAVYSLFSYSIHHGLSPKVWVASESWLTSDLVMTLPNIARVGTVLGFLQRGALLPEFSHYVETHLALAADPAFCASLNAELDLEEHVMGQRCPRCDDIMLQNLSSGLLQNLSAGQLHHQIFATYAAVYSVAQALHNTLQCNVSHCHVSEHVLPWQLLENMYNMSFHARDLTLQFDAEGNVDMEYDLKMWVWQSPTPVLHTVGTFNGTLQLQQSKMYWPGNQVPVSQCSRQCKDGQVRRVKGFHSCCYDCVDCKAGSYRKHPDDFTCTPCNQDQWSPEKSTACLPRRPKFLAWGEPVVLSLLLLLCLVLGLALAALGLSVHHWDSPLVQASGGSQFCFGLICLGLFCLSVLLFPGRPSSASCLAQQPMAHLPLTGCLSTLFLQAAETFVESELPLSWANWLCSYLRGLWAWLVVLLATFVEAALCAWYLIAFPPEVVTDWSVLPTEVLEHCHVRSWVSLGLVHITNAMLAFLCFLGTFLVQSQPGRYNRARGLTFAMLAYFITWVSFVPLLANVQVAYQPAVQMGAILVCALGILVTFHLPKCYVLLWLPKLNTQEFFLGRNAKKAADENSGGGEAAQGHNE

Residues, ends and D or L forms follow the SMILES beside them.

Take `CC1=CC(=O)NS(=O)(=O)O1` [Acesulfame K, acesulfame potassium]: the S/N is 3.7.
For `COC(=O)[C@H](Cc1ccccc1)NC(=O)[C@H](CC(=O)O)NCCCc1ccc(OC)c(O)c1` [Advantame, advantame], the S/N stood at 7.0.
The result for `COC(=O)[C@H](Cc1ccccc1)NC(=O)[C@@H](N)CC(=O)O` [Aspartame, aspartame] (HELM PEPTIDE1{D.F.[CO[*:1]]}$$$$V2.0) reads 5.5.
The result for `COC(=O)[C@H](Cc1ccccc1)NC(=O)[C@H](CC(=O)O)NCCC(C)(C)C` [Neotame, neotame] reads 5.2; that for `C[C@H](NC(=Nc1ccc(C#N)cc1)NCC(=O)O)c1ccccc1` [SC-45647, [3-[(S)-1-phenylethyl]-2-(4-cyanophenyl)guanidino]acetic acid], 5.3; that for `O=C1NS(=O)(=O)c2ccccc21.[Na]` [Saccharin Na, sodium saccharin], 3.8.
Compound `OC[C@H]1O[C@H](O[C@]2(CCl)O[C@H](CCl)[C@@H](O)[C@@H]2O)[C@H](O)[C@@H](O)[C@H]1Cl` [Sucralose, sucralose] had a S/N of 5.9.
The compound `OC[C@H]1O[C@@](CO)(O[C@H]2O[C@H](CO)[C@@H](O)[C@H](O)[C@H]2O)[C@@H](O)[C@@H]1O` [Sucrose, sucrose] registered a S/N of 3.7.
